Measurements from PubChem BioAssay (NCI).
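Interpolation was linear, between the two tested concentrations surrounding the appropriate level; five concentrations were tested over 48 hours in 96-well plates. TGI: concentration producing complete growth inhibition.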

Legend:
Experiment in all cases: DTP human tumour cell line panel, 48 h
786-0 renal = tested on: 786-0 renal
A498 renal = tested on: A498 renal
A549 NSCLC = tested on: A549 NSCLC
ACHN renal = tested on: ACHN renal
CAKI-1 renal = tested on: CAKI-1 renal
CCRF-CEM leukemia = tested on: CCRF-CEM leukemia
COLO 205 colon = tested on: COLO 205 colon
DLD-1 colon = tested on: DLD-1 colon
DMS 273 small cell lung = tested on: DMS 273 small cell lung
EKVX NSCLC = tested on: EKVX NSCLC
HCT-15 colon = tested on: HCT-15 colon
HL-60(TB) leukemia = tested on: HL-60(TB) leukemia
HOP-18 NSCLC = tested on: HOP-18 NSCLC
HOP-92 NSCLC = tested on: HOP-92 NSCLC
HT29 colon = tested on: HT29 colon
IGROV1 ovarian = tested on: IGROV1 ovarian
K-562 leukemia = tested on: K-562 leukemia
KM20L2 colon = tested on: KM20L2 colon
LOX IMVI melanoma = tested on: LOX IMVI melanoma
LXFL 529 NSCLC = tested on: LXFL 529 NSCLC
M14 melanoma = tested on: M14 melanoma
M19-MEL melanoma = tested on: M19-MEL melanoma
MALME-3M melanoma = tested on: MALME-3M melanoma
MOLT-4 leukemia = tested on: MOLT-4 leukemia
NCI-H23 lung = tested on: NCI-H23 lung
NCI-H460 lung = tested on: NCI-H460 lung
NCI-H522 lung = tested on: NCI-H522 lung
OVCAR-4 ovarian = tested on: OVCAR-4 ovarian
OVCAR-5 ovarian = tested on: OVCAR-5 ovarian
OVCAR-8 ovarian = tested on: OVCAR-8 ovarian
RPMI-8226 leukemia = tested on: RPMI-8226 leukemia
RXF 393 renal = tested on: RXF 393 renal
RXF-631 renal = tested on: RXF-631 renal
SF-268 CNS = tested on: SF-268 CNS
SF-539 CNS = tested on: SF-539 CNS
SK-MEL-2 melanoma = tested on: SK-MEL-2 melanoma
SK-MEL-28 melanoma = tested on: SK-MEL-28 melanoma
SK-MEL-5 melanoma = tested on: SK-MEL-5 melanoma
SK-OV-3 ovarian = tested on: SK-OV-3 ovarian
SN12C renal = tested on: SN12C renal
SNB-19 CNS = tested on: SNB-19 CNS
SNB-75 CNS = tested on: SNB-75 CNS
SW-620 colon = tested on: SW-620 colon
TK-10 renal = tested on: TK-10 renal
U251 CNS = tested on: U251 CNS
UACC-257 melanoma = tested on: UACC-257 melanoma
UACC-62 melanoma = tested on: UACC-62 melanoma
UO-31 renal = tested on: UO-31 renal
XF 498 CNS = tested on: XF 498 CNS
BT-549 breast = tested on: BT-549 breast
DMS 114 small cell lung = tested on: DMS 114 small cell lung
DU-145 prostate = tested on: DU-145 prostate
HCC-2998 colon = tested on: HCC-2998 colon
HCT-116 colon = tested on: HCT-116 colon
HOP-62 NSCLC = tested on: HOP-62 NSCLC
HS 578T breast = tested on: HS 578T breast
KM12 colon = tested on: KM12 colon
MCF7 breast = tested on: MCF7 breast
MDA-MB-231 breast = tested on: MDA-MB-231 breast
MDA-MB-435 = tested on: MDA-MB-435
MDA-N = tested on: MDA-N
NCI-H226 lung = tested on: NCI-H226 lung
NCI/ADR-RES ovarian = tested on: NCI/ADR-RES ovarian
OVCAR-3 ovarian = tested on: OVCAR-3 ovarian
PC-3 prostate = tested on: PC-3 prostate
SF-295 CNS = tested on: SF-295 CNS
SNB-78 CNS = tested on: SNB-78 CNS
T-47D breast = tested on: T-47D breast
SR leukemia = tested on: SR leukemia

SMILES: Nc1ccccc1S(=O)(=O)N(CC(=O)O)c1ccccc1
- TGI (786-0 renal): > 100 µM
- TGI (A498 renal): > 100 µM
- TGI (A549 NSCLC): > 100 µM
- TGI (ACHN renal): > 100 µM
- TGI (CAKI-1 renal): > 100 µM
- TGI (CCRF-CEM leukemia): > 100 µM
- TGI (COLO 205 colon): > 100 µM
- TGI (DLD-1 colon): > 100 µM
- TGI (DMS 273 small cell lung): > 100 µM
- TGI (EKVX NSCLC): > 100 µM
- TGI (HCT-15 colon): > 100 µM
- TGI (HL-60(TB) leukemia): > 100 µM
- TGI (HOP-18 NSCLC): > 100 µM
- TGI (HOP-92 NSCLC): > 100 µM
- TGI (HT29 colon): > 100 µM
- TGI (IGROV1 ovarian): > 100 µM
- TGI (K-562 leukemia): > 100 µM
- TGI (KM20L2 colon): > 100 µM
- TGI (LOX IMVI melanoma): > 100 µM
- TGI (LXFL 529 NSCLC): > 100 µM
- TGI (M14 melanoma): > 100 µM
- TGI (M19-MEL melanoma): > 100 µM
- TGI (MALME-3M melanoma): > 100 µM
- TGI (MOLT-4 leukemia): > 100 µM
- TGI (NCI-H23 lung): > 100 µM
- TGI (NCI-H460 lung): > 100 µM
- TGI (NCI-H522 lung): > 100 µM
- TGI (OVCAR-4 ovarian): > 100 µM
- TGI (OVCAR-5 ovarian): > 100 µM
- TGI (OVCAR-8 ovarian): > 100 µM
- TGI (RPMI-8226 leukemia): > 100 µM
- TGI (RXF 393 renal): > 100 µM
- TGI (RXF-631 renal): > 100 µM
- TGI (SF-268 CNS): > 100 µM
- TGI (SF-539 CNS): > 100 µM
- TGI (SK-MEL-2 melanoma): > 100 µM
- TGI (SK-MEL-28 melanoma): > 100 µM
- TGI (SK-MEL-5 melanoma): > 100 µM
- TGI (SK-OV-3 ovarian): > 100 µM
- TGI (SN12C renal): > 100 µM
- TGI (SNB-19 CNS): > 100 µM
- TGI (SNB-75 CNS): > 100 µM
- TGI (SW-620 colon): > 100 µM
- TGI (TK-10 renal): > 100 µM
- TGI (U251 CNS): > 100 µM
- TGI (UACC-257 melanoma): > 100 µM
- TGI (UACC-62 melanoma): > 100 µM
- TGI (UO-31 renal): > 100 µM
- TGI (XF 498 CNS): > 100 µM

SMILES: Cc1cnc(NCCCN(C)C)c2c1[nH]c1ccc3cc(O)ccc3c12
- TGI (786-0 renal): 1.84 µM
- TGI (A498 renal): 3.71 µM
- TGI (A549 NSCLC): 2.5 µM
- TGI (ACHN renal): 4.89 µM
- TGI (BT-549 breast): 3.12 µM
- TGI (CAKI-1 renal): 4.18 µM
- TGI (CCRF-CEM leukemia): 5.88 µM
- TGI (COLO 205 colon): 1.57 µM
- TGI (DLD-1 colon): 3.7 µM
- TGI (DMS 114 small cell lung): 0.993 µM
- TGI (DMS 273 small cell lung): 1.24 µM
- TGI (DU-145 prostate): 4.03 µM
- TGI (EKVX NSCLC): 4.34 µM
- TGI (HCC-2998 colon): 1.98 µM
- TGI (HCT-116 colon): 1.44 µM
- TGI (HCT-15 colon): 17 µM
- TGI (HL-60(TB) leukemia): 8.37 µM
- TGI (HOP-18 NSCLC): 5.97 µM
- TGI (HOP-62 NSCLC): 1.86 µM
- TGI (HOP-92 NSCLC): 1.31 µM
- TGI (HS 578T breast): 2.22 µM
- TGI (HT29 colon): 2.53 µM
- TGI (IGROV1 ovarian): 4.6 µM
- TGI (K-562 leukemia): 3.68 µM
- TGI (KM12 colon): 10 µM
- TGI (KM20L2 colon): 2.29 µM
- TGI (LOX IMVI melanoma): 1.37 µM
- TGI (LXFL 529 NSCLC): 1.76 µM
- TGI (M14 melanoma): 2.55 µM
- TGI (M19-MEL melanoma): 1.25 µM
- TGI (MALME-3M melanoma): 2.2 µM
- TGI (MCF7 breast): 2.15 µM
- TGI (MDA-MB-231 breast): 2.83 µM
- TGI (MDA-MB-435): 2.3 µM
- TGI (MDA-N): 2.21 µM
- TGI (MOLT-4 leukemia): 0.534 µM
- TGI (NCI-H226 lung): 1.73 µM
- TGI (NCI-H23 lung): 2.04 µM
- TGI (NCI-H460 lung): 1.25 µM
- TGI (NCI-H522 lung): 0.624 µM
- TGI (NCI/ADR-RES ovarian): 20.1 µM
- TGI (OVCAR-3 ovarian): 1.59 µM
- TGI (OVCAR-4 ovarian): 1.19 µM
- TGI (OVCAR-5 ovarian): 3.95 µM
- TGI (OVCAR-8 ovarian): 1.96 µM
- TGI (PC-3 prostate): 2.21 µM
- TGI (RPMI-8226 leukemia): 10.1 µM
- TGI (RXF 393 renal): 2.16 µM
- TGI (SF-268 CNS): 2.07 µM
- TGI (SF-295 CNS): 2.89 µM
- TGI (SF-539 CNS): 1.64 µM
- TGI (SK-MEL-2 melanoma): 2.47 µM
- TGI (SK-MEL-28 melanoma): 2.86 µM
- TGI (SK-MEL-5 melanoma): 2.2 µM
- TGI (SK-OV-3 ovarian): 2.75 µM
- TGI (SN12C renal): 1.78 µM
- TGI (SNB-19 CNS): 3.12 µM
- TGI (SNB-75 CNS): 1.87 µM
- TGI (SNB-78 CNS): 3.86 µM
- TGI (SW-620 colon): 1.97 µM
- TGI (T-47D breast): 2.78 µM
- TGI (TK-10 renal): 15.8 µM
- TGI (U251 CNS): 1.02 µM
- TGI (UACC-257 melanoma): 11.5 µM
- TGI (UACC-62 melanoma): 1.9 µM
- TGI (UO-31 renal): 5.8 µM
- TGI (XF 498 CNS): 0.806 µM

SMILES: Cc1c(C(=O)CC(=O)C(=O)Nc2ccccc2C(F)(F)F)[n+](=O)c2ccccc2n1[O-]
- TGI (786-0 renal): > 100 µM
- TGI (A498 renal): > 100 µM
- TGI (A549 NSCLC): 75.6 µM
- TGI (ACHN renal): > 100 µM
- TGI (CAKI-1 renal): > 100 µM
- TGI (CCRF-CEM leukemia): 50 µM
- TGI (COLO 205 colon): 32.2 µM
- TGI (DMS 114 small cell lung): 25.2 µM
- TGI (DMS 273 small cell lung): 59.9 µM
- TGI (EKVX NSCLC): 49.4 µM
- TGI (HCC-2998 colon): 57.7 µM
- TGI (HCT-116 colon): 28.3 µM
- TGI (HCT-15 colon): 44.4 µM
- TGI (HL-60(TB) leukemia): 66.2 µM
- TGI (HOP-18 NSCLC): 37 µM
- TGI (HOP-62 NSCLC): > 100 µM
- TGI (HOP-92 NSCLC): 60.1 µM
- TGI (HT29 colon): 57.2 µM
- TGI (IGROV1 ovarian): 47.5 µM
- TGI (K-562 leukemia): 93.2 µM
- TGI (KM12 colon): 61.6 µM
- TGI (KM20L2 colon): 92.3 µM
- TGI (LOX IMVI melanoma): 63.8 µM
- TGI (LXFL 529 NSCLC): 62.1 µM
- TGI (M14 melanoma): 39 µM
- TGI (MALME-3M melanoma): 37.1 µM
- TGI (NCI-H226 lung): > 100 µM
- TGI (NCI-H23 lung): 44.3 µM
- TGI (NCI-H460 lung): 69.4 µM
- TGI (NCI-H522 lung): 35.8 µM
- TGI (OVCAR-3 ovarian): 8.37 µM
- TGI (OVCAR-4 ovarian): 42 µM
- TGI (OVCAR-5 ovarian): 65.9 µM
- TGI (OVCAR-8 ovarian): 61.3 µM
- TGI (RPMI-8226 leukemia): 24.2 µM
- TGI (RXF 393 renal): 80.1 µM
- TGI (SF-268 CNS): 69 µM
- TGI (SF-295 CNS): > 100 µM
- TGI (SF-539 CNS): 46.2 µM
- TGI (SK-MEL-2 melanoma): 48.3 µM
- TGI (SK-MEL-28 melanoma): 92.1 µM
- TGI (SK-MEL-5 melanoma): 30.4 µM
- TGI (SK-OV-3 ovarian): > 100 µM
- TGI (SN12C renal): 54.4 µM
- TGI (SNB-19 CNS): > 100 µM
- TGI (SNB-78 CNS): > 100 µM
- TGI (SR leukemia): 26.6 µM
- TGI (SW-620 colon): 47 µM
- TGI (TK-10 renal): > 100 µM
- TGI (U251 CNS): 49 µM
- TGI (UACC-257 melanoma): 36.2 µM
- TGI (UACC-62 melanoma): 34.4 µM
- TGI (UO-31 renal): > 100 µM
- TGI (XF 498 CNS): 42 µM
